Assay results as given in patent publication US10906873B2, “Substituted cyclic amides as herbicides” (FMC Corporation, priority 2015, dated 2021).

These molecules were tested on foxtail, giant (giant foxtail, Setaria faberii) (assay: Test A postemergence, foxtail, giant). Settings: 125 g ai/ha, 0 to 100 scale.
Format: in vivo
Outline: (§1)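 Pre: seeds planted in loam/sand, directed soil spray. Post: 2–10 cm plants, 1–2 leaf. Formulation: non-phytotoxic solvent + surfactant. Greenhouse ~10 d; visual injury vs untreated, 0 = no effect, 100 = complete control.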

Row | Structure (SMILES) | Plant response rating, Foxtail, Giant
1 | O=C1NCC(/C=C/c2ccccc2F)C1C(=O)Nc1ccccc1F (stereo not drawn) [Compound 34] | 20

Same assay, conditions: 500 g ai/ha, 0 to 100 scale

Row | Structure (SMILES) | Plant response rating, Foxtail, Giant
2 | O=C1NCC(/C=C/c2ccccc2F)C1C(=O)Nc1ccccc1F (stereo not drawn) [Compound 34] | 80

The molecules below were run on ragweed (common ragweed, Ambrosia elatior) (assay: Test A postemergence, ragweed). Settings: 125 g ai/ha, 0 to 100 scale.
Format: in vivo
Outline: as §1

Row | Structure (SMILES) | Plant response rating, Ragweed
3 | O=C1NCC(/C=C/c2ccccc2F)C1C(=O)Nc1ccccc1F (stereo not drawn) [Compound 34] | 0

Same assay, conditions: 500 g ai/ha, 0 to 100 scale

Row | Structure (SMILES) | Plant response rating, Ragweed
4 | O=C1NCC(/C=C/c2ccccc2F)C1C(=O)Nc1ccccc1F (stereo not drawn) [Compound 34] | 0

What follows are molecules tested on foxtail, giant (giant foxtail, Setaria faberii) (assay: Test A preemergence, foxtail, giant). Settings: 125 g ai/ha, 0 to 100 scale.
Format: in vivo
Outline: as §1

Row | Structure (SMILES) | Plant response rating, Foxtail, Giant
5 | O=C1NCC(/C=C/c2ccccc2F)C1C(=O)Nc1ccccc1F (stereo not drawn) [Compound 34] | 20

Same assay, conditions: 500 g ai/ha, 0 to 100 scale

Row | Structure (SMILES) | Plant response rating, Foxtail, Giant
6 | O=C1NCC(/C=C/c2ccccc2F)C1C(=O)Nc1ccccc1F (stereo not drawn) [Compound 34] | 80

What follows are molecules tested on pigweed (Amaranthus retroflexus) (assay: Test A preemergence, pigweed). Settings: 125 g ai/ha, 0 to 100 scale.
Format: in vivo
Outline: as §1

Row | Structure (SMILES) | Plant response rating, Pigweed
7 | O=C1NCC(/C=C/c2ccccc2F)C1C(=O)Nc1ccccc1F (stereo not drawn) [Compound 34] | 80

Same assay, conditions: 500 g ai/ha, 0 to 100 scale

Row | Structure (SMILES) | Plant response rating, Pigweed
8 | O=C1NCC(/C=C/c2ccccc2F)C1C(=O)Nc1ccccc1F (stereo not drawn) [Compound 34] | 100

What follows are molecules tested on kochia (Kochia scoparia) (assay: Test A preemergence, kochia). Settings: 125 g ai/ha, 0 to 100 scale.
Format: in vivo
Outline: as §1

Row | Structure (SMILES) | Plant response rating, Kochia
9 | O=C1NCC(/C=C/c2ccccc2F)C1C(=O)Nc1ccccc1F (stereo not drawn) [Compound 34] | 0

Same assay, conditions: 500 g ai/ha, 0 to 100 scale

Row | Structure (SMILES) | Plant response rating, Kochia
10 | O=C1NCC(/C=C/c2ccccc2F)C1C(=O)Nc1ccccc1F (stereo not drawn) [Compound 34] | 0

These molecules were tested on wheat (Triticum aestivum) (assay: Test A postemergence, wheat). Settings: 125 g ai/ha, 0 to 100 scale.
Format: in vivo
Outline: as §1

Row | Structure (SMILES) | Plant response rating, Wheat
11 | O=C1NCC(/C=C/c2ccccc2F)C1C(=O)Nc1ccccc1F (stereo not drawn) [Compound 34] | 0

Same assay, conditions: 500 g ai/ha, 0 to 100 scale

Row | Structure (SMILES) | Plant response rating, Wheat
12 | O=C1NCC(/C=C/c2ccccc2F)C1C(=O)Nc1ccccc1F (stereo not drawn) [Compound 34] | 20

These molecules were tested on pigweed (Amaranthus retroflexus) (assay: Test A postemergence, pigweed). Settings: 125 g ai/ha, 0 to 100 scale.
Format: in vivo
Outline: as §1

Row | Structure (SMILES) | Plant response rating, Pigweed
13 | O=C1NCC(/C=C/c2ccccc2F)C1C(=O)Nc1ccccc1F (stereo not drawn) [Compound 34] | 0

Same assay, conditions: 500 g ai/ha, 0 to 100 scale

Row | Structure (SMILES) | Plant response rating, Pigweed
14 | O=C1NCC(/C=C/c2ccccc2F)C1C(=O)Nc1ccccc1F (stereo not drawn) [Compound 34] | 0

The molecules below were run on barnyardgrass (Echinochloa crus-galli) (assay: Test A postemergence, barnyardgrass). Settings: 125 g ai/ha, 0 to 100 scale.
Format: in vivo
Outline: as §1

Row | Structure (SMILES) | Plant response rating, Barnyardgrass
15 | O=C1NCC(/C=C/c2ccccc2F)C1C(=O)Nc1ccccc1F (stereo not drawn) [Compound 34] | 0

Same assay, conditions: 500 g ai/ha, 0 to 100 scale

Row | Structure (SMILES) | Plant response rating, Barnyardgrass
16 | O=C1NCC(/C=C/c2ccccc2F)C1C(=O)Nc1ccccc1F (stereo not drawn) [Compound 34] | 60

Each molecule was assayed on ragweed (common ragweed, Ambrosia elatior) (assay: Test A preemergence, ragweed). Settings: 125 g ai/ha, 0 to 100 scale.
Format: in vivo
Outline: as §1

Row | Structure (SMILES) | Plant response rating, Ragweed
17 | O=C1NCC(/C=C/c2ccccc2F)C1C(=O)Nc1ccccc1F (stereo not drawn) [Compound 34] | 0

Same assay, conditions: 500 g ai/ha, 0 to 100 scale

Row | Structure (SMILES) | Plant response rating, Ragweed
18 | O=C1NCC(/C=C/c2ccccc2F)C1C(=O)Nc1ccccc1F (stereo not drawn) [Compound 34] | 0

What follows are molecules tested on ryegrass, It. (Italian ryegrass, Lolium multiflorum) (assay: Test A postemergence, ryegrass, It.). Settings: 125 g ai/ha, 0 to 100 scale.
Format: in vivo
Outline: as §1

Row | Structure (SMILES) | Plant response rating, Ryegrass, It.
19 | O=C1NCC(/C=C/c2ccccc2F)C1C(=O)Nc1ccccc1F (stereo not drawn) [Compound 34] | 0

Same assay, conditions: 500 g ai/ha, 0 to 100 scale

Row | Structure (SMILES) | Plant response rating, Ryegrass, It.
20 | O=C1NCC(/C=C/c2ccccc2F)C1C(=O)Nc1ccccc1F (stereo not drawn) [Compound 34] | 0

These molecules were tested on ducksalad (Heteranthera limosa) (assay: Test B flooded paddy test, ducksalad). Settings: Flood, 250 g ai/ha; scale of 0 to 100 where 0 is no effect and 100 is complete control; 13 to 15 d.
Format: in vivo
Outline: (§2)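 Ratings use a 0-100 visual scale, where 100 is complete control, and compare treated plants with controls after 13 to 15 d of greenhouse growth. Compound went straight into paddy water kept 3 cm over the soil surface, applied to seedlings at the 2-leaf stage.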

Row | Structure (SMILES) | Plant response rating, Ducksalad
21 | O=C1NCC(/C=C/c2ccccc2F)C1C(=O)Nc1ccccc1F (stereo not drawn) [Compound 34] | 80

Each molecule was assayed on kochia (Kochia scoparia) (assay: Test A postemergence, kochia). Settings: 125 g ai/ha, 0 to 100 scale.
Format: in vivo
Outline: as §1

Row | Structure (SMILES) | Plant response rating, Kochia
22 | O=C1NCC(/C=C/c2ccccc2F)C1C(=O)Nc1ccccc1F (stereo not drawn) [Compound 34] | 0

Same assay, conditions: 500 g ai/ha, 0 to 100 scale

Row | Structure (SMILES) | Plant response rating, Kochia
23 | O=C1NCC(/C=C/c2ccccc2F)C1C(=O)Nc1ccccc1F (stereo not drawn) [Compound 34] | 0

What follows are molecules tested on galium (catchweed bedstraw, Galium aparine) (assay: Test A postemergence, galium). Settings: 125 g ai/ha, 0 to 100 scale.
Format: in vivo
Outline: as §1

Row | Structure (SMILES) | Plant response rating, Galium
24 | O=C1NCC(/C=C/c2ccccc2F)C1C(=O)Nc1ccccc1F (stereo not drawn) [Compound 34] | 0

Same assay, conditions: 500 g ai/ha, 0 to 100 scale

Row | Structure (SMILES) | Plant response rating, Galium
25 | O=C1NCC(/C=C/c2ccccc2F)C1C(=O)Nc1ccccc1F (stereo not drawn) [Compound 34] | 0

Each molecule was assayed on sedge, umbrella (small-flower umbrella sedge, Cyperus difformis) (assay: Test B flooded paddy test, sedge, umbrella). Settings: Flood, 250 g ai/ha; scale of 0 to 100 where 0 is no effect and 100 is complete control; 13 to 15 d.
Format: in vivo
Outline: as §2

Row | Structure (SMILES) | Plant response rating, Sedge, Umbrella
26 | O=C1NCC(/C=C/c2ccccc2F)C1C(=O)Nc1ccccc1F (stereo not drawn) [Compound 34] | 60

The molecules below were run on barnyardgrass (Echinochloa crus-galli) (assay: Test B flooded paddy test, barnyardgrass). Settings: Flood, 250 g ai/ha; scale of 0 to 100 where 0 is no effect and 100 is complete control; 13 to 15 d.
Format: in vivo
Outline: as §2

Row | Structure (SMILES) | Plant response rating, Barnyardgrass
27 | O=C1NCC(/C=C/c2ccccc2F)C1C(=O)Nc1ccccc1F (stereo not drawn) [Compound 34] | 0

Each molecule was assayed on blackgrass (Alopecurus myosuroides) (assay: Test A postemergence, blackgrass). Settings: 125 g ai/ha, 0 to 100 scale.
Format: in vivo
Outline: as §1

Row | Structure (SMILES) | Plant response rating, Blackgrass
28 | O=C1NCC(/C=C/c2ccccc2F)C1C(=O)Nc1ccccc1F (stereo not drawn) [Compound 34] | 0

Same assay, conditions: 500 g ai/ha, 0 to 100 scale

Row | Structure (SMILES) | Plant response rating, Blackgrass
29 | O=C1NCC(/C=C/c2ccccc2F)C1C(=O)Nc1ccccc1F (stereo not drawn) [Compound 34] | 0

The molecules below were run on corn (Zea mays) (assay: Test A postemergence, corn). Settings: 125 g ai/ha, 0 to 100 scale.
Format: in vivo
Outline: as §1

Row | Structure (SMILES) | Plant response rating, Corn
30 | O=C1NCC(/C=C/c2ccccc2F)C1C(=O)Nc1ccccc1F (stereo not drawn) [Compound 34] | 0

Same assay, conditions: 500 g ai/ha, 0 to 100 scale

Row | Structure (SMILES) | Plant response rating, Corn
31 | O=C1NCC(/C=C/c2ccccc2F)C1C(=O)Nc1ccccc1F (stereo not drawn) [Compound 34] | 0

Each molecule was assayed on rice (Oryza sativa) (assay: Test B flooded paddy test, rice). Settings: Flood, 250 g ai/ha; scale of 0 to 100 where 0 is no effect and 100 is complete control; 13 to 15 d.
Format: in vivo
Outline: as §2

Row | Structure (SMILES) | Plant response rating, Rice
32 | O=C1NCC(/C=C/c2ccccc2F)C1C(=O)Nc1ccccc1F (stereo not drawn) [Compound 34] | 15

These molecules were tested on barnyardgrass (Echinochloa crus-galli) (assay: Test A preemergence, barnyardgrass). Settings: 125 g ai/ha, 0 to 100 scale.
Format: in vivo
Outline: as §1

Row | Structure (SMILES) | Plant response rating, Barnyardgrass
33 | O=C1NCC(/C=C/c2ccccc2F)C1C(=O)Nc1ccccc1F (stereo not drawn) [Compound 34] | 20

Same assay, conditions: 500 g ai/ha, 0 to 100 scale

Row | Structure (SMILES) | Plant response rating, Barnyardgrass
34 | O=C1NCC(/C=C/c2ccccc2F)C1C(=O)Nc1ccccc1F (stereo not drawn) [Compound 34] | 80

Each molecule was assayed on ryegrass, It. (Italian ryegrass, Lolium multiflorum) (assay: Test A preemergence, ryegrass, It.). Settings: 125 g ai/ha, 0 to 100 scale.
Format: in vivo
Outline: as §1

Row | Structure (SMILES) | Plant response rating, Ryegrass, It.
35 | O=C1NCC(/C=C/c2ccccc2F)C1C(=O)Nc1ccccc1F (stereo not drawn) [Compound 34] | 0

Same assay, conditions: 500 g ai/ha, 0 to 100 scale

Row | Structure (SMILES) | Plant response rating, Ryegrass, It.
36 | O=C1NCC(/C=C/c2ccccc2F)C1C(=O)Nc1ccccc1F (stereo not drawn) [Compound 34] | 0
